This test has as its system B cell line, CD40 signaling inhibition reporter. Description: CD40 pathway inhibition in B cells – B cell lineage, dose response (AID 1259332).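 Also: cells stimulated with CD40 ligand tCD40L.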

Calls of active or inactive are those of the source. No rule for the calls is given here. Where only a bound is given, the exact number is not on record here.

The AC50 is the midpoint of the concentration-response curve, whichever way the signal moves.

In the case of `Cc1ccsc1C(=O)OCC(=O)c1cc(C)n(CC2CCCO2)c1C` (configuration not stated), the AC50 was 0.124 µM. For the molecule `CC1CC(C)C(=NNC(N)=O)C(C(O)CC2CCC(=O)NC2=O)C1` (configuration not stated), the AC50 was 0.241 µM. The figure for `CC(OC(=O)c1cc(Br)ccc1O)C(=O)Nc1ccc(S(=O)(=O)N2CCCC2)cc1` (configuration not stated) is 11 µM; for `CCN(CC)c1ccc(C(NC(=O)C(C)C)c2ccc3cccnc3c2O)cc1` (configuration not stated) it is > 20 µM (inactive). The figure for `O=C1c2ccccc2C(=O)C1c1ccc2ccccc2n1` is 6.15 µM; for `Cc1cc(C(=O)COC(=O)CNC(=O)c2ccccc2)c(C)n1CC1CCCO1` (configuration not stated) it is 2.32 µM. With `CC1CCOC(=O)C=CC=CC(=O)OC2CC3OC4C5OC5(C)C(O)CC4(COC(=O)C1O)C2(C)C31CO1` (configuration not stated), the AC50 is 0.0446 µM. The figure for `Oc1c(Cl)cc(Cl)cc1Sc1cc(Cl)cc(Cl)c1O` is 7.67 µM; for `COc1ccc(S(=O)(=O)N(C)C[C@H]2Oc3ccc(NC(=O)Nc4ccc(C(F)(F)F)cc4)cc3C(=O)N([C@@H](C)CO)C[C@H]2C)cc1` it is > 20 µM (inactive). For the molecule `C[C@H](CO)N1C[C@H](C)[C@@H](CN(C)Cc2ccc(Cl)c(Cl)c2)OCCCC[C@H](C)Oc2ccc(NS(=O)(=O)c3cccs3)cc2C1=O`, the AC50 was 8.38 µM.

Consider `Oc1ccc2c(c1)OCC1(O)Cc3cc(O)c(O)cc3C21` (configuration not stated), for which the AC50 was 2.81 µM. The figure for `c1ccc(-c2nnc(-c3ccccn3)nn2)nc1` is 10.5 µM; for `CN(C)c1ccc(C(=C2C=CC(=[N+](C)C)C=C2)c2ccc(N(C)C)cc2)cc1` it is 0.105 µM; for `COc1ccc(-c2ccc([C@H]3[C@@H](C#N)N(C(=O)c4cccc(F)c4)[C@H]3CO)cc2)cc1` it is > 22 µM (inactive). In the case of `Cc1ccccc1NC(=O)c1nc(S(C)(=O)=O)ncc1Cl`, the AC50 is 1.68 µM. In the case of `COC(=O)C1=C(C(=O)OC)C2OC1c1cc3ccccc3cc12` it was 0.738 µM; in that of `COc1ccc(/C=C2/CCC(CN3CCOCC3)C2=O)cc1` (configuration not stated), 3.67 µM; in that of `COC1=CC(=O)c2c(ccc3ncnc(N)c23)C1=O`, 1.66 µM.

`O=C1/C(=C/c2ccccc2)C[C@@]2(O)C3Cc4ccc(O)c5c4[C@@]2(CCN3CC2CC2)[C@H]1O5`: the AC50 is 1.75 µM. The figure for `O=C(C1CCOCC1)N1CC(=O)N2[C@H](C1)[C@@H](c1ccc(C#CCc3ccccc3)cc1)[C@@H]2CO` is 5.95 µM. The figure for `CCc1csc(N2[C@H](C#N)[C@H](c3ccc(C#Cc4ccc(F)cc4)cc3)[C@H]2CO)n1` is > 20 µM (inactive); for `O=C(C1CCOCC1)N1CC(=O)N2[C@H](C1)[C@H](c1ccc(C#CCc3ccccc3)cc1)[C@@H]2CO` it is 1.86 µM; for `c1ccc2nc(-c3nc4ccccc4o3)ccc2c1` it is 4.54 µM. The figure for `C[C@H]1CN([C@@H](C)CO)C(=O)Cc2cc(NS(=O)(=O)c3cccs3)ccc2O[C@@H]1CN(C)Cc1ccc(Cl)c(Cl)c1` is 5.83 µM. As for `Cc1ccccc1-c1ccc2c(c1)O[C@@H](CN(C)C(=O)Nc1ccc(C(F)(F)F)cc1)[C@@H](C)CN([C@@H](C)CO)S2(=O)=O`, the AC50 is 10.5 µM. With `C[C@@H]1C[C@@H]([C@H](O)CC2CC(=O)NC(=O)C2)C(=O)[C@@H](C)C1`, the AC50 was 0.393 µM. The figure for `COC(=O)C12OCC34C(CC5C(C)=C(O)C(=O)CC5(C)C3C(O)C1O)OC(=O)C(OC(=O)C=C(C)C)C24` (configuration not stated) is 0.479 µM; for `O=C(C[C@@H]1C[C@H]2c3cc(NC(=O)Nc4ccc(C(F)(F)F)cc4)ccc3O[C@H]2[C@H](CO)O1)NCc1cc(F)ccc1F` it is > 20 µM (inactive). The figure for `Cc1noc(C)c1S(=O)(=O)Nc1ccc2c(c1)CC(=O)N([C@@H](C)CO)C[C@@H](C)[C@@H](CN(C)Cc1ccc(Oc3ccccc3)cc1)O2` is 7.39 µM. In the case of `O=C(C1CC1)N1C[C@@H]2N[C@H](C1)[C@@H]2c1ccc(-c2ccncc2)cc1` it was 5.72 µM.

With `CC(C)[C@H](CO)Nc1nc(Nc2cccc(Cl)c2)c2ncn(C(C)C)c2n1`, the AC50 is 4.67 µM. Take `CC1=CC2OC3CC4OC(=O)C=CC=CC(C(C)O)OCC(O)C5(C)OC5C(=O)OCC2(CC1O)C4(C)C31CO1` (configuration not stated): the AC50 was 0.0375 µM.

Source of the values: PubChem BioAssay AID1259332 (Broad Institute, 2017).
